Converted amounts (≈) assume the structure as drawn. The source made the active and inactive calls. The rule behind the calls is not given here.
Experiments:
Ehrlich [1] = experiment: Antitumor activity against mouse EAC cells allografted in CF1 mouse assessed as tumor growth inhibition at 33.3 mg/kg/day, ip after 7 days; type: functional; conditions: 168 h, route intraperitoneal, read-out: TGI
[2] = Cytotoxicity against human Hep2 cells; type: functional; conditions: HEp-2, read-out: ED50 (the source's name)
Ehrlich [3] = experiment: Antitumor activity against mouse EAC cells allografted in CF1 mouse assessed as survival at 33.3 mg/kg/day, ip after 7 days; type: functional, organism-based
W256 = experiment: Antitumor activity against rat Walker 256 cells allografted in Sprague-Dawley rat at 2.5 mg/kg/day, ip relative to control; type: functional; conditions: route intraperitoneal
P388 = experiment: Antitumor activity against mouse P388 cells allografted in DBA/2 mouse at 25 mg/kg/day, ip relative to control; type: functional; conditions: route intraperitoneal
[4] = Stability of the compound assessed as reactivity with histidine at 28 mg after 7 days by NMR analysis; type: physicochemical; conditions: 168 h
[5] = Stability of the compound assessed as reactivity with reduced glutathione at 28 mg after 16 hrs by NMR analysis; type: physicochemical
[6] = Stability of the compound assessed as reactivity with L-cysteine by NMR analysis; type: physicochemical
[7] = Binding affinity to dAMP (unknown origin) at 0.015 ug by UV-spectrophotometry
Ehrlich [8] = experiment: Antitumor activity against mouse EAC cells allografted in CF1 mouse assessed as [gamma-32P] incorporation into histone at 0.125 mg/day administered from day 5 to day 7 measured on day 8 relative to control; type: functional
[9] = Binding affinity to dGMP (unknown origin) at 0.015 ug at pH 7.2 after 24 hrs by UV-spectrophotometry
Ehrlich [10] = experiment: Antitumor activity against mouse EAC cells allografted in CF1 mouse assessed as [methyl-14C]thymidine incorporation to DNA at 0.125 mg/day administered from day 5 to day 7 measured on day 8 by scintillation counting analysis relative to control; type: functional
Ehrlich [11] = experiment: Antitumor activity against mouse EAC cells allografted in CF1 mouse assessed as DNA content at 0.125 mg/day administered from day 5 to day 7 measured on day 8 by UV-spectrophotometry relative to control; type: functional
[12] = Binding affinity to dGMP (unknown origin) by NMR analysis
[13] = Binding affinity to dATP (unknown origin) at 0.015 ug by UV-spectrophotometry
Ehrlich [14] = experiment: Antitumor activity against mouse EAC cells assessed as nuclear DNA polymerase activity at 0.6 mg measured on day 8 relative to control; type: functional
[15] = Stability of the compound assessed as reactivity with oxidized glutathione at 10 mg after 4 hrs by NMR analysis; type: physicochemical
[16] = Stability of the compound assessed as reactivity with reduced glutathione at 10 mg after 4 hrs by NMR analysis; type: physicochemical
[17] = Stability of the compound assessed as reactivity with L-cysteine at 10 mg after 4 hrs by NMR analysis; type: physicochemical
Ehrlich [18] = experiment: Antitumor activity against mouse EAC cells allografted in CF1 mouse assessed as chromatin protein content at 0.125 mg/day administered from day 5 to day 7 measured on day 8 relative to control; type: functional
Ehrlich [19] = experiment: Antitumor activity against mouse EAC cells allografted in CF1 mouse assessed as nuclear DNA polymerase activity at 0.125 mg/day administered from day 5 to day 7 measured on day 8 relative to control; type: functional
[20] = Binding affinity to DNA (unknown origin) at 0.015 ug at pH 7.2 after 24 hrs by UV-spectrophotometry
Ehrlich [21] = experiment: Antitumor activity against mouse EAC cells allografted in CF1 mouse assessed as cell viability at 0.125 mg/day administered from day 5 to day 7 measured on day 8 by trypan blue assay relative to control; type: functional, cell-based
Ehrlich [22] = experiment: Antitumor activity against mouse EAC cells allografted in CF1 mouse assessed as 3',5' cAMP level at 0.125 mg/day administered from day 5 to day 7 measured on day 8 by RIA relative to control; type: functional
Ehrlich [23] = experiment: Antitumor activity against mouse EAC cells assessed as tissue SH stimulation at 0.6 mg measured on day 8 by Ellman method relative to control; type: functional
Ehrlich [24] = experiment: Antitumor activity against mouse EAC cells allografted in CF1 mouse assessed as ascitocrit count per mililitre of fluid at 0.125 mg/day administered from day 5 to day 7 measured on day 8 by hemocytometry relative to control; type: functional
Ehrlich [25] = experiment: Antitumor activity against mouse EAC cells allografted in CF1 mouse assessed as free lysosomal DNAse activity at 0.125 mg/day administered from day 5 to day 7 measured on day 8 relative to control; type: functional
Ehrlich [26] = experiment: Antitumor activity against mouse EAC cells allografted in CF1 mouse assessed as [gamma-32P] incorporation into nonhistone at 0.125 mg/day administered from day 5 to day 7 measured on day 8 relative to control; type: functional
[27] = Binding affinity to dGTP (unknown origin) at 0.015 ug at pH 7.2 after 24 hrs by UV-spectrophotometry
Ehrlich [28] = experiment: Antitumor activity against mouse EAC cells allografted in CF1 mouse assessed as ascitocrit count per mililitre of fluid at 0.25 mg/day administered from day 5 to day 7 measured on day 8 by hemocytometry relative to control; type: functional
Ehrlich [29] = experiment: Antitumor activity against mouse EAC cells allografted in CF1 mouse assessed as cell viability at 0.25 mg/day administered from day 5 to day 7 measured on day 8 by trypan blue assay relative to control; type: functional, cell-based
Ehrlich [30] = experiment: Antitumor activity against mouse EAC cells allografted in CF1 mouse assessed as [methyl-14C]thymidine incorporation to DNA at 0.25 mg/day administered from day 5 to day 7 measured on day 8 by scintillation counting analysis relative to control; type: functional
Ehrlich [31] = experiment: Antitumor activity against mouse EAC cells allografted in CF1 mouse assessed as free lysosomal DNAse activity at 0.25 mg/day administered from day 5 to day 7 measured on day 8 relative to control; type: functional
Ehrlich [32] = experiment: Antitumor activity against mouse EAC cells allografted in CF1 mouse assessed as chromatin protein content at 0.25 mg/day administered from day 5 to day 7 measured on day 8 relative to control; type: functional
Ehrlich [33] = experiment: Antitumor activity against mouse EAC cells allografted in CF1 mouse assessed as nuclear DNA polymerase activity at 0.25 mg/day administered from day 5 to day 7 measured on day 8 relative to control; type: functional
Ehrlich [34] = experiment: Antitumor activity against mouse EAC cells allografted in CF1 mouse assessed as DNA content at 0.25 mg/day administered from day 5 to day 7 measured on day 8 by UV-spectrophotometry relative to control; type: functional
Ehrlich [35] = experiment: Antitumor activity against mouse EAC cells allografted in CF1 mouse assessed as 3',5' cAMP level at 0.25 mg/day administered from day 5 to day 7 measured on day 8 by RIA relative to control; type: functional
Ehrlich [36] = experiment: Antitumor activity against mouse EAC cells allografted in CF1 mouse assessed as [gamma-32P] incorporation into histone at 0.25 mg/day administered from day 5 to day 7 measured on day 8 relative to control; type: functional

SMILES | inhibition in vivo at 33.3 mg/kg/day (Ehrlich [1]) [%] | EC50 [2] [µg/mL] | Survival (Ehrlich [3]) | T/C (W256) [%] | T/C (P388) [%] | Activity [7] | Activity [9] | Activity [13] | Activity (Ehrlich [14]) [%] | Activity [20] | Activity (Ehrlich [23]) [%] | Activity [27] | also measured
C[C@@H]1C[C@H]2OC(=O)[C@@H](C)[C@H]2[C@H](O)[C@]2(C)C(=O)C=C[C@@H]12 | 100 | 0.814 (≈ 3.08 µM) | Active | 207 | 134 |  |  |  |  |  |  |  | 
C[C@@H]1C[C@@H]2OC(=O)[C@]3(C)[C@@H]2[C@@H](OC3(C)O)[C@]2(C)C(=O)CC(SC[C@H](N)C(=O)O)[C@@H]12 (stereo partly drawn) | 15.8 | 13.7 (≈ 32 µM) | Active |  |  |  |  |  |  |  |  |  | 
O=C1C=CCC1 | 74.8 | 50 (≈ 609 µM) | Active | 188 |  |  |  |  |  |  |  |  | Stability [4]: Unstable; Stability [5]: Stable; Stability [6]: Stable
C=C1C(=O)O[C@@H]2C[C@@H](C)[C@@H]3C=CC(=O)[C@@]3(C)[C@@H](O)[C@H]12 [HELENALIN] | 100 | 0.1 (≈ 0.381 µM) |  | 316 | 127 | inactive | inactive | inactive | 35 | inactive | 183 | inactive | Activity (Ehrlich [8]): 30%; Activity (Ehrlich [10]): 12%; Activity (Ehrlich [11]): 66%; Activity [12]: inactive; Stability [15]: Unstable; Stability [16]: Stable; Stability [17]: Stable; Activity (Ehrlich [18]): 83%; Activity (Ehrlich [19]): 52%; Activity (Ehrlich [21]): inactive; Activity (Ehrlich [22]): 292%; Activity (Ehrlich [24]): 70%; Activity (Ehrlich [25]): 25%; Activity (Ehrlich [26]): 63%
Sc1ncnc2nc[nH]c12 [MERCAPTOPURINE ANHYDROUS] | 99.4 |  | Active |  |  |  |  |  |  |  |  |  | 
C[C@@H]1C[C@@H]2OC(=O)[C@]3(C)[C@H]2[C@@H](OC3(C)O)[C@]2(C)C(=O)C=C[C@@H]12 (stereo partly drawn) [TENULIN] | 97.3 | 4.5 (≈ 14.7 µM) | Active | 266 | 131 | inactive | inactive | inactive | 88 | inactive | 203 | inactive | Activity (Ehrlich [28]): 43%; Activity (Ehrlich [29]): inactive; Activity (Ehrlich [30]): 9%; Activity (Ehrlich [31]): 29%; Activity (Ehrlich [32]): 92%; Activity (Ehrlich [33]): 71%; Activity (Ehrlich [34]): 73%; Activity (Ehrlich [35]): 236%; Activity (Ehrlich [36]): 17%

Reference: ChEMBL document CHEMBL3272037, “Antitumor agents. 21. A proposed mechanism for inhibition of cancer growth by tenulin and helenalin and related cyclopentenones” (J Med Chem, 1977)
